Test results taken from US20170369878A1, “MICRORNA COMBINATIONS FOR ANTI-CANCER THERAPEUTICS” (Massachusetts Institute of Technology, priority 2015, published 2017).

Test system: OVCAR8 cells and OVCAR8-ADR cells
Assay: Docetaxel dose-response (MTT), resistant versus parental line
Format: cell-based, human
Settings: docetaxel three days, FIG. 13
Procedure: OVCAR8 cells (triangles) and OVCAR8-ADR (squares) cells (docetaxel-resistant derivative of OVCAR8) cells were treated with docetaxel at indicated doses for three days and subjected to the MTT assay. Cell viabilities were compared to the respective no drug controls. The OVCAR8-ADR cell line has a ˜3-fold higher IC50 than the parental OVCAR8 cell line. Data represent the mean±SD (n=3).
For the MTT assay, 100 μl of MTT (3-(4,5-dimethylthiazol-2-yl)-2,5-diphenyltetrazolium bromide) solution (Sigma) was added to the cell cultures in 96-well plates and incubated at 37° C. with 5% CO2 for 2 hours. Viable cells convert the soluble MTT salt to insoluble blue formazan crystals. Formazan crystals formed were dissolved with 100 μl of solubilization buffer at 37° C. The absorbance of the solubilized formazan was measured at an optical density (OD) of 570 nm (along with the reference OD at 650 nm) using a Synergy H1 Microplate Reader (BioTek). For the trypan blue exclusion assay, cells were trypsinized and stained with 0.4% trypan blue dye solution (Sigma). Viable cells were counted in four different fields of a hemacytometer under microscopy.

## CC(=O)O[C@@]12CO[C@@H]1C[C@H](O)[C@@]1(C)C(=O)[C@H](O)C3=C(C)[C@@H](OC(=O)[C@H](O)[C@@H](NC(=O)OC(C)(C)C)c4ccccc4)C[C@@](O)([C@@H](OC(=O)c4ccccc4)[C@H]21)C3(C)C [docetaxel]
  IC50 of OVCAR8-ADR relative to parental OVCAR8: ~3 fold
